Measurements from PMC9784969, “SARS-CoV-2 Inhibitors Identified by Phenotypic Analysis of a Collection of Viral RNA-Binding Molecules” (Pharmaceuticals, 2022).
Where two headings read alike, the source gives them in different places.

Key:
PRF RNA = assay: ligand-based 1H NMR (1D, CPMG, wLOGSY); format: binding, SARS-CoV-2
5_SL2+3 RNA = assay: ligand-based 1H NMR (1D, CPMG, wLOGSY); format: binding, SARS-CoV-2
in vitro [1] = settings: African green monkey, uninfected Vero E6 cells
3_S2m RNA = assay: RNA-based 1H NMR (TOCSY) titration; format: binding, SARS-CoV-2; settings: RNA:ligand up to 1:4
Description: The RNA samples were previously diafiltrated into an aqueous solution containing 25 mM potassium phosphate (pH 6.2), 50 mM KCl and 0.1 mM EDTA, and the titration experiments were carried out at 27 °C using 50 μM RNA samples in 100% D2O. The 3_S2m titrations were duplicated at 25 °C using 120 μM RNA samples and additionally acquiring NOESY spectra (250 ms mixing time) at 1:0 and 1:4 ratios. For this system, the chemical shift perturbation analyses included 63 H1’, H2’, and aromatic 3_S2m resonances. The isolated 3_S2m hairpin was studied at two different temperatures (25 and 35 °C) using 120 and 500 μM RNA samples and similar TOCSY and NOESY (120 and 250 ms mixing times) experiments. […] The relaxation delay for NOESY and TOCSY acquisition was 2 and 1.5 s, respectively.

in vitro [2] = settings: human, uninfected 293T-ACE2 cells
SARS-CoV-2 USA-WA1/2020 [3] = assay: microbe, parasite or virus in culture; format: cell-based; settings: Severe acute respiratory syndrome coronavirus 2, 48 h; 293T-ACE2 cells, MOI 0.25, two days; read-out: SARS-CoV-2 EC50
ATTL RNA = assay: ligand-based 1H NMR (1D, CPMG, wLOGSY); format: binding, SARS-CoV-2
ORF7b RNA = assay: ligand-based 1H NMR (1D, CPMG, wLOGSY); format: binding, SARS-CoV-2
SARS-CoV-2 USA-WA1/2020 [4] = assay: microbe, parasite or virus in culture; format: cell-based; settings: Severe acute respiratory syndrome coronavirus 2, Vero C1008, 48 h, Vero E6 cells, MOI 0.025, two days; read-out: SARS-CoV-2 EC50
[5] = average of aliphatic protons, RNA:ligand 1:100 (clomiphene) or 1:50 (trim, qz2)
[6] = average of aromatic protons, RNA:ligand 1:100 (clomiphene) or 1:50 (trim, qz2)

CC(C)CCN1CCC(CNc2nc3ccccc3c(=O)[nH]2)CC1 [qz2]
CPMG variation (PRF RNA; [5]): -10.71% | LB (PRF RNA; [5]): -3.21% | LOGSY factor (PRF RNA; [5]): 3.74% | CPMG variation (PRF RNA; [6]): 13.0% | LB (PRF RNA; [6]): -0.27% | LOGSY factor (PRF RNA; [6]): 22.5% | CPMG variation (PRF RNA; qz2 peak A, RNA:ligand 1:50): -12.9% | LB (PRF RNA; qz2 peak A, RNA:ligand 1:50): -3.66% | LOGSY factor (PRF RNA; qz2 peak A, RNA:ligand 1:50): 3.10% | CPMG variation (PRF RNA; qz2 peak C/D, RNA:ligand 1:50): -17.7% | LB (PRF RNA; qz2 peak C/D, RNA:ligand 1:50): -8.83% | LOGSY factor (PRF RNA; qz2 peak C/D, RNA:ligand 1:50): 7.49% | CPMG variation (PRF RNA; qz2 peak E/B, RNA:ligand 1:50): -18.2% | LB (PRF RNA; qz2 peak E/B, RNA:ligand 1:50): 3.04% | LOGSY factor (PRF RNA; qz2 peak E/B, RNA:ligand 1:50): 2.11% | CPMG variation (PRF RNA; qz2 peak F, RNA:ligand 1:50): -0.60% | LB (PRF RNA; qz2 peak F, RNA:ligand 1:50): -8.91% | LOGSY factor (PRF RNA; qz2 peak F, RNA:ligand 1:50): 3.69% | CPMG variation (PRF RNA; qz2 peak G, RNA:ligand 1:50): -7.24% | LB (PRF RNA; qz2 peak G, RNA:ligand 1:50): 1.78% | LOGSY factor (PRF RNA; qz2 peak G, RNA:ligand 1:50): 2.32% | CPMG variation (PRF RNA; qz2 peak I, RNA:ligand 1:50): 13.2% | LB (PRF RNA; qz2 peak I, RNA:ligand 1:50): -0.20% | LOGSY factor (PRF RNA; qz2 peak I, RNA:ligand 1:50): 13.3% | CPMG variation (PRF RNA; qz2 peak J, RNA:ligand 1:50): 11.4% | LB (PRF RNA; qz2 peak J, RNA:ligand 1:50): -1.72% | LOGSY factor (PRF RNA; qz2 peak J, RNA:ligand 1:50): 42.7% | CPMG variation (PRF RNA; qz2 peak K, RNA:ligand 1:50): 14.6% | LB (PRF RNA; qz2 peak K, RNA:ligand 1:50): 1.11% | LOGSY factor (PRF RNA; qz2 peak K, RNA:ligand 1:50): 11.4% | CPMG variation (5_SL2+3 RNA; [5]): -3.85% | LB (5_SL2+3 RNA; [5]): -0.01% | LOGSY factor (5_SL2+3 RNA; [5]): 2.85% | CPMG variation (5_SL2+3 RNA; [6]): 4.67% | LB (5_SL2+3 RNA; [6]): 1.97% | LOGSY factor (5_SL2+3 RNA; [6]): 5.80% | CPMG variation (5_SL2+3 RNA; qz2 peak A, RNA:ligand 1:50): 3.62% | LB (5_SL2+3 RNA; qz2 peak A, RNA:ligand 1:50): 6.29% | LOGSY factor (5_SL2+3 RNA; qz2 peak A, RNA:ligand 1:50): 1.74% | CPMG variation (5_SL2+3 RNA; qz2 peak C/D, RNA:ligand 1:50): -2.36% | LB (5_SL2+3 RNA; qz2 peak C/D, RNA:ligand 1:50): -0.32% | LOGSY factor (5_SL2+3 RNA; qz2 peak C/D, RNA:ligand 1:50): 3.84% | CPMG variation (5_SL2+3 RNA; qz2 peak E/B, RNA:ligand 1:50): -11.8% | LB (5_SL2+3 RNA; qz2 peak E/B, RNA:ligand 1:50): 8.30% | LOGSY factor (5_SL2+3 RNA; qz2 peak E/B, RNA:ligand 1:50): 4.57% | CPMG variation (5_SL2+3 RNA; qz2 peak F, RNA:ligand 1:50): -1.52% | LB (5_SL2+3 RNA; qz2 peak F, RNA:ligand 1:50): -13.0% | LOGSY factor (5_SL2+3 RNA; qz2 peak F, RNA:ligand 1:50): 2.30% | CPMG variation (5_SL2+3 RNA; qz2 peak G, RNA:ligand 1:50): -3.33% | LB (5_SL2+3 RNA; qz2 peak G, RNA:ligand 1:50): 3.46% | LOGSY factor (5_SL2+3 RNA; qz2 peak G, RNA:ligand 1:50): 1.79% | CPMG variation (5_SL2+3 RNA; qz2 peak I, RNA:ligand 1:50): 4.89% | LB (5_SL2+3 RNA; qz2 peak I, RNA:ligand 1:50): 5.64% | LOGSY factor (5_SL2+3 RNA; qz2 peak I, RNA:ligand 1:50): 6.13% | CPMG variation (5_SL2+3 RNA; qz2 peak J, RNA:ligand 1:50): 5.88% | LB (5_SL2+3 RNA; qz2 peak J, RNA:ligand 1:50): -6.27% | LOGSY factor (5_SL2+3 RNA; qz2 peak J, RNA:ligand 1:50): 7.22% | CPMG variation (5_SL2+3 RNA; qz2 peak K, RNA:ligand 1:50): 3.01% | LB (5_SL2+3 RNA; qz2 peak K, RNA:ligand 1:50): 6.54% | LOGSY factor (5_SL2+3 RNA; qz2 peak K, RNA:ligand 1:50): 4.04% | CC50 at 2 days (in vitro [1]): > 20 µM | RNA chemical shift perturbations (3_S2m RNA): smaller perturbations | CC50 at 2 days (in vitro [2]): > 6.6 µM | EC50 (SARS-CoV-2 USA-WA1/2020 [3]): 0.12 µM | CPMG variation (ATTL RNA; [5]): 1.57% | LB (ATTL RNA; [5]): 4.09% | LOGSY factor (ATTL RNA; [5]): 4.38% | CPMG variation (ATTL RNA; [6]): 10.0% | LB (ATTL RNA; [6]): 3.39% | LOGSY factor (ATTL RNA; [6]): 9.98% | CPMG variation (ATTL RNA; qz2 peak A, RNA:ligand 1:50): 7.14% | LB (ATTL RNA; qz2 peak A, RNA:ligand 1:50): 6.48% | LOGSY factor (ATTL RNA; qz2 peak A, RNA:ligand 1:50): 2.39% | CPMG variation (ATTL RNA; qz2 peak C/D, RNA:ligand 1:50): 3.98% | LB (ATTL RNA; qz2 peak C/D, RNA:ligand 1:50): 2.52% | LOGSY factor (ATTL RNA; qz2 peak C/D, RNA:ligand 1:50): 6.82% | CPMG variation (ATTL RNA; qz2 peak E/B, RNA:ligand 1:50): -8.59% | LB (ATTL RNA; qz2 peak E/B, RNA:ligand 1:50): 7.56% | LOGSY factor (ATTL RNA; qz2 peak E/B, RNA:ligand 1:50): 2.78% | CPMG variation (ATTL RNA; qz2 peak F, RNA:ligand 1:50): 7.26% | LB (ATTL RNA; qz2 peak F, RNA:ligand 1:50): -1.84% | LOGSY factor (ATTL RNA; qz2 peak F, RNA:ligand 1:50): 3.39% | CPMG variation (ATTL RNA; qz2 peak G, RNA:ligand 1:50): 2.72% | LB (ATTL RNA; qz2 peak G, RNA:ligand 1:50): 8.16% | LOGSY factor (ATTL RNA; qz2 peak G, RNA:ligand 1:50): 6.53% | CPMG variation (ATTL RNA; qz2 peak I, RNA:ligand 1:50): 9.63% | LB (ATTL RNA; qz2 peak I, RNA:ligand 1:50): 3.05% | LOGSY factor (ATTL RNA; qz2 peak I, RNA:ligand 1:50): 10.3% | CPMG variation (ATTL RNA; qz2 peak J, RNA:ligand 1:50): 9.03% | LB (ATTL RNA; qz2 peak J, RNA:ligand 1:50): 12.1% | LOGSY factor (ATTL RNA; qz2 peak J, RNA:ligand 1:50): 5.22% | CPMG variation (ATTL RNA; qz2 peak K, RNA:ligand 1:50): 10.5% | LB (ATTL RNA; qz2 peak K, RNA:ligand 1:50): -5.00% | LOGSY factor (ATTL RNA; qz2 peak K, RNA:ligand 1:50): 14.4% | LB (ORF7b RNA; [5]): -7.94% | LOGSY factor (ORF7b RNA; [5]): 6.35% | CPMG variation (ORF7b RNA; [6]): 50.7% | LB (ORF7b RNA; [6]): 26.2% | LOGSY factor (ORF7b RNA; [6]): 33.7% | CPMG variation (ORF7b RNA; qz2 peak A, RNA:ligand 1:50): -33.2% | LB (ORF7b RNA; qz2 peak A, RNA:ligand 1:50): -5.02% | LOGSY factor (ORF7b RNA; qz2 peak A, RNA:ligand 1:50): 3.94% | CPMG variation (ORF7b RNA; qz2 peak C/D, RNA:ligand 1:50): -34.1% | LB (ORF7b RNA; qz2 peak C/D, RNA:ligand 1:50): -10.7% | LOGSY factor (ORF7b RNA; qz2 peak C/D, RNA:ligand 1:50): 9.65% | CPMG variation (ORF7b RNA; qz2 peak E/B, RNA:ligand 1:50): -16.1% | LB (ORF7b RNA; qz2 peak E/B, RNA:ligand 1:50): -1.09% | LOGSY factor (ORF7b RNA; qz2 peak E/B, RNA:ligand 1:50): 5.54% | CPMG variation (ORF7b RNA; qz2 peak F, RNA:ligand 1:50): -4.16% | LB (ORF7b RNA; qz2 peak F, RNA:ligand 1:50): -14.4% | LOGSY factor (ORF7b RNA; qz2 peak F, RNA:ligand 1:50): 6.18% | CPMG variation (ORF7b RNA; qz2 peak G, RNA:ligand 1:50): -19.2% | LB (ORF7b RNA; qz2 peak G, RNA:ligand 1:50): -8.90% | LOGSY factor (ORF7b RNA; qz2 peak G, RNA:ligand 1:50): 6.45% | CPMG variation (ORF7b RNA; qz2 peak I, RNA:ligand 1:50): 48.3% | LB (ORF7b RNA; qz2 peak I, RNA:ligand 1:50): 30.9% | LOGSY factor (ORF7b RNA; qz2 peak I, RNA:ligand 1:50): 7.00% | CPMG variation (ORF7b RNA; qz2 peak J, RNA:ligand 1:50): 45.5% | LB (ORF7b RNA; qz2 peak J, RNA:ligand 1:50): 38.3% | LOGSY factor (ORF7b RNA; qz2 peak J, RNA:ligand 1:50): 76.3% | CPMG variation (ORF7b RNA; qz2 peak K, RNA:ligand 1:50): 58.5% | LB (ORF7b RNA; qz2 peak K, RNA:ligand 1:50): 9.52% | LOGSY factor (ORF7b RNA; qz2 peak K, RNA:ligand 1:50): 17.9% | EC50 (SARS-CoV-2 USA-WA1/2020 [4]): 7.52 µM
